One molecule from patent publication US8835403B2, “Algin oligosaccharides and the derivatives thereof as well as the manufacture and the use of the same” (priority 2004, dated 2014) can be followed below.

SMILES strings stand for the structures.

For one assay, the target named is T1, Aβ1-40 (Homo sapiens, UniProt P05067).
T1 construct: Fresh Aβ1-40 is incubated alone or with 6-mer
Put plainly: Fibril formation of Aβ1-40 studied with TEM. It is filed as biochemical.

A further assay deals with Aβ1-40 fibril (Homo sapiens, UniProt P05067). Put plainly: Destability of preformed Aβ1-40 fibril (TEM). It is filed as biochemical. Conditions: Aβ1-40 aged 7 d, then 6-mer for additional 3 days (FIG. 10C). The method, then: 1 mg/ml of distilled water-resolved Aβ1-40 is aged at 37° C. for 7d, after which it is exposed to 6-mer for 3 days.
Aβ1-40 fibril, sequence (P05067 672-711 limits assumed): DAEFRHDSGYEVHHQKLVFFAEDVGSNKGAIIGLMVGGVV

T1 sequence (P05067 672-711 limits assumed): as above

As for `O=C(O)C1OC(OC2C(C(=O)O)OC(OC3C(C(=O)O)OC(OC4C(C(=O)O)OC(OC5C(C(=O)O)OC(OC6C(C(=O)O)OC(O)C(O)C6O)C(O)C5O)C(O)C4O)C(O)C3O)C(O)C2O)C(O)C(O)C1O` (stereo not drawn) [6-mer, mannuronic hexasaccharide], the “fibril formation of Aβ1-40 (TEM)” value on Aβ1-40 (incubation 24 h and 48 h (FIG. 9)) is “significantly inhibit the fibril formation of Aβ1-40”. Moreover, the “fibril formation of Aβ1-40 facilitated by heparin (TEM)” value on Aβ1-40 (with heparin, 24 h and 48 h (FIG. 9)) was “significant inhibitory effect”. On Aβ1-40 fibril, the “effect on preformed Aβ1-40 fibers (TEM)” value is on record as “turned into small irregular short fibers”.
